Measurements reported in US7491501B2, “Methods for identifying modulators of intracellular aggregate formation” (Auburn University, priority 2003, dated 2009).

Test system: 26S proteasome
Assay: In vitro deubiquitination assay of K63 polyubiquitinated tau with 26S proteasome
Type: biochemical
Conditions: Ub-H 1 or 10 μM, 26S proteasome 40 or 80 nM, 2 h 37° C.
Experimental: In Vitro Ubiquitination and Deubiquitination Assay—His-tagged tau construct was expressed in HEK 293 cells by calcium phosphate method. The cells were collected, washed with PBS and lysed with SDS lysis buffer. The lysate was immunoprecipitated with tau antibody and bound to secondary antibody coupled with agarose beads. Fifty microliters of the reaction buffer (50 mM Tris pH 7.5, 2.5 mM MgCl2, 2 mM DTT, 2 mM ATP) containing 100 ng El, 200 ng UbcH7 (E2), 100 μg TRAF6 (E3) and 5 μg of GST-WT Ub, or its mutants K29R, K48R, and K63R Ub was added to the immunoprecipitated tau. The beads were incubated at 37° C. for 2 h by continuous shaking, then washed three times with reaction buffer. The proteins were released by boiling for 2 min in SDS-PAGE sample buffer, electrophoresed on 7.5% SDS-PAGE and western blotted with antibody to ubiquitin and tau. For the in vitro deubiquitination assay, the ubiquitinated tau was treated with 26S proteasome (40 or 80 nM) in 30 μl of buffer containing 50 mM Tris-HCl, pH 7.5, 2 mM MgCl2, 2 mM ATP for 2 h at 37° C. The deubiquitination of tau by the 26S proteasome was blocked by the addition of ubiquitin aldehyde (Ub-H), an inhibitor of ubiquitin isopeptidases (1 or 10 μM). The samples were boiled in sample buffer, resolved by 7.5% SDS-PAGE and western blotted with anti-ubiquitin or anti-tau. […]

ubiquitin aldehyde [Ub-H]
polyubiquitin degradation (deubiquitination of tau) by 26S proteasome: inhibited
